# In patent US20160067255A1, “METHODS OF TREATING OR PREVENTING HIV IN PATIENTS USING A COMBINATION OF TENOFOVIR ALAFENAMIDE AND DOLUTEGRAVIR” (priority 2014, published 2016):
# Experiment: Oral pharmacokinetics of TAF alone or in combination with dolutegravir in male beagle dogs (plasma, LC/MS)
# Conditions: dog; for half-life: T1/2 (estimated terminal elimination half-life)
# Protocol: TAF was dosed at 5 mg/kg (as free base) orally in solution to fasted male beagle dogs (N=6 animals, mean weight 10 kg). On Day 1, TAF was administered alone. On days 2, 3, 4 and 5, 3 mg/kg of Dolutegravir (DTG) was administered alone (as free acid). Both compounds were administered on Day 6. The plasma pharmacokinetic profiles of TAF and its nucleotide metabolite tenofovir (TFV) were determined by LC/MS in samples taken on Day 1 and Day 6 of dosing.
# The oral dosing formulation for TAF was 0.1% Hydroxypropylmethylcellulose K100LV, 0.1% Polysorbate 20, 99.8% deionized water. For dolutegravir, the oral dosing formulation was 0.5% Hydroxypropylmethylcellulose LV 100 and 0.1% Tween 20 in deionized water.
# The animals were fasted overnight prior to each dose administration and up to 4 hr after dosing. The blood samples were collected on days 1 and 6 predose and at the following time points following dosing: 0.25, 0.5, 1, 2, 4, 6, 8, 12 and 24 hour. The blood samples were collected into Vacutainer™ tubes containing Sodium Fluoride/Potassium Oxalate (BD Biosciences). The blood samples were centrifuged at 4° C. to separate plasma. Plasma samples were frozen and stored in −70° C. freezers.
# Plasma was prepared by protein precipitation by adding acetonitrile to a final concentration of 70% in the presence of internal standard. Following filtration to remove precipitated protein, samples were evaporated, reconstituted with mobile phase A (0.2% formate in water) and analyzed using injections of 5 μl for analysis.
# [1] = Day 6 (TAF + DTG) versus Day 1 (TAF alone)
# [2] = male, beagle, in vivo, po, 5 mg/kg, TAF in plasma, Day 1, TAF 5 mg/kg oral alone, fasted male beagle dogs, mean n=6
# [3] = male, beagle, in vivo, po, 5 mg/kg, TAF in plasma, Day 6, TAF 5 mg/kg oral co-administered with DTG 3 mg/kg after 4 daily doses of DTG, male beagle dogs, mean n=6
# [4] = male, beagle, in vivo, po, 5 mg/kg
"TFV levels in Day 1 pre-dose plasma samples (male, beagle, in vivo) [nM]",AUC(0-t) [4] [µM·h],"AUC(0-inf) (male, beagle, in vivo, po, 5 mg/kg, AUC0-inf) [µM·h]",Cmax [4] [nM],half-life [4] [min],Tmax [4] [min],Compound,increase of maximal concentrations (Cmax) of TAF upon coadministration with DTG [1],increase of oral exposure of TAF upon coadministration with DTG [1],"AUC(0-t) (male, beagle, in vivo, po, 5 mg/kg, AUC0-24hr, TAF in plasma, Day 1, TAF 5 mg/kg oral alone, fasted male beagle dogs, mean n=6) [µM·h]","AUC(0-t) (male, beagle, in vivo, po, 5 mg/kg, AUC0-24hr, TAF in plasma, Day 6, TAF 5 mg/kg oral co-administered with DTG 3 mg/kg after 4 daily doses of DTG, male beagle dogs, mean n=6) [µM·h]",Cmax [2] [nM],Cmax [3] [nM],half-life [2] [min],Tmax [2] [min],Tmax [3] [min]
–,–,–,–,–,–,"CC(C)OC(=O)[C@H](C)N[P@](=O)(CO[C@H](C)Cn1cnc2c(N)ncnc21)Oc1ccccc1 [TAF, 9-[(R)-2-[[(S)-[[(S)-1-(isopropoxycarbonyl)ethyl]amino]phenoxyphosphinyl]-methoxy]propyl]adenine]",approximately 2 fold,approximately 2 fold,0.174,0.345,412,818,11.4,17.4,15
< 10,1.6,2.92,253,1500,75,"C[C@H](Cn1cnc2c(N)ncnc21)OCP(=O)(O)O [TFV, Tenofovir]",–,–,–,–,–,–,–,–,–
